Reference: the supplement of paper PMC10307832

Columns and labels:
Assay in all cases: relative viability (nuclei count vs DMSO), 5 days (fraction); higher = more cells survive
[1] = system: HARA
In short: (§1)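 A single step with final 0.05% Triton X-100, 1% formaldehyde and 1 ug/ml Hoechst fixed the cells and stained nuclei 5 days after treatment. Lung cancer cell lines in 1536-well plates had been treated by pin tool the day after seeding with one drug alone or a fixed anchor-drug dose plus five library-drug doses (not always all listed) in √10 steps, and nuclei were counted on 4× images. Relative viability is the ratio of nuclei in treated wells to nuclei in vehicle wells, taken as the median of duplicate plates.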

[2] = system: NCI-H2023
In short: as §1

[3] = system: NCI-H3122
In short: as §1

[4] = system: BEN
In short: as §1

[5] = system: NCI-H596
In short: as §1

[6] = system: NCI-H23
In short: as §1

[7] = system: HCC-44
In short: as §1

[8] = system: NCI-H1395
In short: as §1

[9] = system: LOU-NH91
In short: as §1

[10] = system: 201T
In short: as §1

[11] = system: NCI-H2347
In short: as §1

[12] = system: NCI-H2087
In short: as §1

[13] = system: NCI-H838
In short: as §1

[14] = system: NCI-H441
In short: as §1

[15] = system: EMC-BAC-2
In short: as §1

[16] = system: NCI-H647
In short: as §1

[17] = system: NCI-H650
In short: as §1

[18] = system: LCLC-103H
In short: as §1

[19] = system: NCI-H2126
In short: as §1

[20] = system: NCI-H1993
In short: as §1

[21] = system: NCI-H727
In short: as §1

Work on `CCN(CC)CCCCNc1ncc2cc(-c3cc(OC)cc(OC)c3)c(NC(=O)NC(C)(C)C)nc2n1` + C[C@]1(O)C[C@@H](c2nc(-c3ccc4ccc(-c5ccccc5)nc4c3)c3c(N)nccn32)C1 [Linsitinib] (partner 1 µM) yielded a relative viability ([1]; first compound 0.01 µM) of 1.04, a relative viability ([1]; first compound 0.03162 µM) of 1 and a relative viability ([1]; first compound 0.1 µM) of 0.989. It also gave a relative viability ([1]; first compound 0.3162 µM) of 0.933, a relative viability ([1]; first compound 1 µM) of 0.672 and a relative viability ([2]; first compound 0.01 µM) of 0.716. The relative viability ([2]; first compound 0.03162 µM) was 0.691, the relative viability ([2]; first compound 0.1 µM) was 0.636 and the relative viability ([2]; first compound 0.3162 µM) was 0.708. It also gave a relative viability ([2]; first compound 1 µM) of 0.685, a relative viability ([3]; first compound 0.01 µM) of 1.05 and a relative viability ([3]; first compound 0.03162 µM) of 1.02. The relative viability ([3]; first compound 0.1 µM) was 1.08, the relative viability ([3]; first compound 0.3162 µM) was 1.04 and the relative viability ([3]; first compound 1 µM) was 1.01. The relative viability ([4]; first compound 0.01 µM) was 1.11, the relative viability ([4]; first compound 0.03162 µM) was 0.838 and the relative viability ([4]; first compound 0.1 µM) was 0.894. It also gave a relative viability ([4]; first compound 0.3162 µM) of 1.07, a relative viability ([4]; first compound 1 µM) of 0.691 and a relative viability ([5]; first compound 0.01 µM) of 1.1. For the same compound, the relative viability ([5]; first compound 0.03162 µM) was 1.05, the relative viability ([5]; first compound 0.1 µM) was 1.05 and the relative viability ([5]; first compound 0.3162 µM) was 1.07. The relative viability ([5]; first compound 1 µM) was 0.814, the relative viability ([6]; first compound 0.01 µM) was 0.669 and the relative viability ([6]; first compound 0.03162 µM) was 0.63. For the same compound, the relative viability ([6]; first compound 0.1 µM) was 0.644, the relative viability ([6]; first compound 0.3162 µM) was 0.601 and the relative viability ([6]; first compound 1 µM) was 0.516. It also gave a relative viability ([7]; first compound 0.01 µM) of 0.752, a relative viability ([7]; first compound 0.03162 µM) of 0.709 and a relative viability ([7]; first compound 0.1 µM) of 0.749. The relative viability ([7]; first compound 0.3162 µM) was 0.684, the relative viability ([7]; first compound 1 µM) was 0.614 and the relative viability ([8]; first compound 0.03162 µM) was 1.02. The relative viability ([8]; first compound 0.1 µM) was 0.935, the relative viability ([8]; first compound 0.3162 µM) was 1.04 and the relative viability ([8]; first compound 1 µM) was 0.671. For the same compound, the relative viability ([9]; first compound 0.01 µM) was 0.882, the relative viability ([9]; first compound 0.03162 µM) was 0.938 and the relative viability ([9]; first compound 0.1 µM) was 0.968. It also gave a relative viability ([9]; first compound 0.3162 µM) of 0.996, a relative viability ([9]; first compound 1 µM) of 0.93 and a relative viability ([10]; first compound 0.01 µM) of 1.07. For the same compound, the relative viability ([10]; first compound 0.03162 µM) was 1.02, the relative viability ([10]; first compound 0.1 µM) was 1.07 and the relative viability ([10]; first compound 0.3162 µM) was 1.12. For the same compound, the relative viability ([10]; first compound 1 µM) was 1.02, the relative viability ([11]; first compound 0.01 µM) was 0.93 and the relative viability ([11]; first compound 0.03162 µM) was 0.999. It also gave a relative viability ([11]; first compound 0.1 µM) of 0.916, a relative viability ([11]; first compound 0.3162 µM) of 1.05 and a relative viability ([11]; first compound 1 µM) of 0.889. For the same compound, the relative viability ([12]; first compound 0.01 µM) was 0.912, the relative viability ([12]; first compound 0.03162 µM) was 0.979 and the relative viability ([12]; first compound 0.1 µM) was 1.21. For the same compound, the relative viability ([12]; first compound 0.3162 µM) was 1.02, the relative viability ([12]; first compound 1 µM) was 0.883 and the relative viability ([13]; first compound 0.01 µM) was 1.13. For the same compound, the relative viability ([13]; first compound 0.03162 µM) was 1, the relative viability ([13]; first compound 0.1 µM) was 1.05 and the relative viability ([13]; first compound 0.3162 µM) was 1.01. For the same compound, the relative viability ([13]; first compound 1 µM) was 0.603, the relative viability ([14]; first compound 0.01 µM) was 0.626 and the relative viability ([14]; first compound 0.03162 µM) was 0.441. The relative viability ([14]; first compound 0.1 µM) was 0.808, the relative viability ([14]; first compound 0.3162 µM) was 0.635 and the relative viability ([14]; first compound 1 µM) was 0.432. The relative viability ([15]; first compound 0.01 µM) was 0.873, the relative viability ([15]; first compound 0.03162 µM) was 0.836 and the relative viability ([15]; first compound 0.1 µM) was 0.821. The relative viability ([15]; first compound 0.3162 µM) was 0.838, the relative viability ([15]; first compound 1 µM) was 0.771 and the relative viability ([16]; first compound 0.01 µM) was 1.31. For the same compound, the relative viability ([16]; first compound 0.03162 µM) was 1.09, the relative viability ([16]; first compound 0.1 µM) was 1.75 and the relative viability ([16]; first compound 0.3162 µM) was 1.52. For the same compound, the relative viability ([16]; first compound 1 µM) was 1, the relative viability ([17]; first compound 0.01 µM) was 0.792 and the relative viability ([17]; first compound 0.03162 µM) was 0.929. For the same compound, the relative viability ([17]; first compound 0.1 µM) was 0.97, the relative viability ([17]; first compound 0.3162 µM) was 1.1 and the relative viability ([17]; first compound 1 µM) was 0.789. It also gave a relative viability ([18]; first compound 0.01 µM) of 1.17, a relative viability ([18]; first compound 0.03162 µM) of 1.11 and a relative viability ([18]; first compound 0.1 µM) of 1.2. For the same compound, the relative viability ([18]; first compound 0.3162 µM) was 1.09, the relative viability ([18]; first compound 1 µM) was 1.15 and the relative viability ([19]; first compound 0.01 µM) was 0.725. The relative viability ([19]; first compound 0.03162 µM) was 0.712, the relative viability ([19]; first compound 0.1 µM) was 0.794 and the relative viability ([19]; first compound 0.3162 µM) was 0.674. The relative viability ([19]; first compound 1 µM) was 0.708, the relative viability ([20]; first compound 0.01 µM) was 0.763 and the relative viability ([20]; first compound 0.03162 µM) was 0.807. The relative viability ([20]; first compound 0.1 µM) was 0.831, the relative viability ([20]; first compound 0.3162 µM) was 0.751 and the relative viability ([20]; first compound 1 µM) was 0.731. For the same compound, the relative viability ([21]; first compound 0.01 µM) was 0.297, the relative viability ([21]; first compound 0.03162 µM) was 0.251 and the relative viability ([21]; first compound 0.1 µM) was 0.293. For the same compound, the relative viability ([21]; first compound 0.3162 µM) was 0.363 and the relative viability ([21]; first compound 1 µM) was 0.301.
